In patent US20060122228A1, “Methods and compositions using immunomodulatory compounds for treatment and management of central nervous system injury” (priority 2004, published 2006):
Where “and” joins values, the source holds several entries; their conditions need not be identical. Equal values may be shown once. Read-outs that look alike come from different tables or passages of the source.

Key:
TNF-α production [1] = conditions: LPS-stimulated human whole blood, cited from earlier work; for IC50: read-out: IC50 for inhibiting production of TNF-α
TNF-α production [2] = conditions: LPS-stimulated PBMC, cited from earlier work; for IC50: read-out: IC50 for inhibiting production of TNF-α
TNF-α production [3] = assay: Inhibition of TNF-α production following LPS-stimulation of human PBMC; format: cell-based
IL-10 production = assay: LPS-stimulated production of IL-10 by PBMC; format: cell-based
IL-2 production = assay: Augmentation of IL-2 production following TCR activation of PBMC; format: cell-based
IL-1β production = assay: LPS-stimulated production of IL-1β by PBMC; format: cell-based
IFN-γ production = assay: Augmentation of IFN-γ production following TCR activation of T-cells; format: cell-based
T-cells = assay: Stimulation of T-cell proliferation following primary induction by T-cell receptor (TCR) activation; format: cell-based
IL-6 production = assay: LPS-stimulated production of IL-6 by PBMC; format: cell-based
Hs Sultan cells = assay: Inhibition of proliferation of Hs Sultan cells; format: cell-based; conditions: read-out: concentration achieving 50% inhibition of proliferation
MM.IS cells = assay: Inhibition of proliferation of MM.IS cells; format: cell-based; conditions: read-out: concentration achieving 50% inhibition of proliferation
[4] = cited from earlier work

SMILES | IC50 for inhibiting production of TNF-α (TNF-α production [1]) [µg/mL] | IC50 (TNF-α production [1]) [nM] | IC50 for inhibiting production of TNF-α (TNF-α production [2]) [µg/mL] | IC50 (TNF-α production [2]) [nM] | stability / interconversion in aqueous solvent systems [4] | also measured
Nc1cccc2c1CN(C1CCC(=O)NC1=O)C2=O (stereo not shown) [3-(4-amino-1-oxo-1,3-dihydro-isoindol-2-yl)-piperidine-2,6-dione] | ~0.1036 | ~480 | ~0.0259 | ~100 | – | effect on LPS-stimulated production of TNF-α (TNF-α production [3]): dose-dependent inhibition; effect on production of the anti-inflammatory cytokine IL-10 (IL-10 production): increased production; potency relative to thalidomide in augmenting the production of IL-2 (IL-2 production): 50-100 times; effect on LPS-stimulated production of IL-1β (IL-1β production): dose-dependent inhibition; potency relative to thalidomide in augmenting the production of IFN-γ (IFN-γ production): 50-100 times; potency relative to thalidomide in stimulating the proliferation of T-cells (T-cells): 50-100 times; effect on LPS-stimulated production of IL-6 (IL-6 production): dose-dependent inhibition
Nc1cccc2c1C(=O)N(C1CCC(=O)NC1=O)C2=O (stereo not shown) [4-(amino)-2-(2,6-dioxo(3-piperidyl))-isoindoline-1,3-dione] | ~0.00683 | ~25 | ~0.00655 | ~24 | – | IC50 (Hs Sultan cells): 0.00273 µg/mL to 0.0273 µg/mL and 10 nM to 100 nM; IC50 (MM.IS cells): 0.00273 µg/mL to 0.0273 µg/mL and 10 nM to 100 nM
Nc1cccc2c1CN(C1CCC(=O)NC1=O)C2=O (stereo not shown) [Form A, 3-(4-amino-1-oxo-1,3 dihydro-isoindol-2-yl)-piperidene-2,6-dione] | – | – | – | – | – | thermodynamic stability among polymorphs ([4]; anhydrous polymorphs): most thermodynamically stable anhydrous polymorph
Nc1cccc2c1CN(C1CCC(=O)NC1=O)C2=O (stereo not shown) [Form B, 3-(4-amino-1-oxo-1,3 dihydro-isoindol-2-yl)-piperidene-2,6-dione] | – | – | – | – | converts to Form E | –
Nc1cccc2c1CN(C1CCC(=O)NC1=O)C2=O (stereo not shown) [Form E, 3-(4-amino-1-oxo-1,3 dihydro-isoindol-2-yl)-piperidene-2,6-dione] | – | – | – | – | most stable form | –
O=C1CCC(N2C(=O)c3ccccc3C2=O)C(=O)N1 (stereo not shown) [Thalidomide, thalidomide, reference compound] | – | – | ~50.2 | ~194000 | – | –
